Active and inactive are the calls of the source. The calls are words filed in the database; no cut-off is given here.
Legend:
[1] = tested on: Mus musculus; test: Antinociceptive activity in Kunming mouse assessed as changes in tail flick latency by measuring maximal possible effect at 26.7 nmol/kg, sc measured after 30 mins by tail-flick test; assay type: functional; settings: 0.5 h
[2] = target: T1, Kappa-type opioid receptor (Homo sapiens, UniProt P41145); test: Agonist activity at KOR (unknown origin) transfected in CHO cells co-expressing Galphaq15 assessed as increase in calcium mobilization by measuring maximal efficacy by Fluo-4AM dye based assay relative to control; assay type: functional, cell-based; settings: filed as agonist
T1 sequence (P41145 whole entry): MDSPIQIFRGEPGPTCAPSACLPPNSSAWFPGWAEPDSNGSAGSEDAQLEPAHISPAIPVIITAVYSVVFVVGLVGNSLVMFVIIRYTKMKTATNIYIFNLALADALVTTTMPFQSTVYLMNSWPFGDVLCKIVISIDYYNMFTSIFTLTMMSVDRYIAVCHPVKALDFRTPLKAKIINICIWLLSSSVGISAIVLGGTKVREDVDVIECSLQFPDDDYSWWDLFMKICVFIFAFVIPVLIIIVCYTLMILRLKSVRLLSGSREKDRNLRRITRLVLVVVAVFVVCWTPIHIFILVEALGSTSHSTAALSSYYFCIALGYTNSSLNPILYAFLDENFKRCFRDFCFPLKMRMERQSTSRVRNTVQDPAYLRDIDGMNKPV

[3] = target: T2, Delta-type opioid receptor (Homo sapiens, UniProt P41143); test: Agonist activity at DOR (unknown origin) transfected in CHO cells co-expressing Galphaq15 assessed as increase in calcium mobilization by Fluo-4AM dye based assay; assay type: functional, cell-based
T2 sequence (P41143 whole entry): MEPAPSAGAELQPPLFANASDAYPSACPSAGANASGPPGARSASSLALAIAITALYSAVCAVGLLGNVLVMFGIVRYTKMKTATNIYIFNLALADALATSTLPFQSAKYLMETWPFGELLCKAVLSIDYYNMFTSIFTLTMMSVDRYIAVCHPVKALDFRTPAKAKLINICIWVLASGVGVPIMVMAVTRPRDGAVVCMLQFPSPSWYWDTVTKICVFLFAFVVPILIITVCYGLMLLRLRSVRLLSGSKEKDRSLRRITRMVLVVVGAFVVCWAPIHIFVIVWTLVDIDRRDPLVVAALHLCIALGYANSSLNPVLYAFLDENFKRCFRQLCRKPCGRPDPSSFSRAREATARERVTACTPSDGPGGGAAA

[4] = tested on: Mus musculus; test: Antinociceptive activity in Kunming mouse assessed as changes in tail flick latency by measuring maximal possible effect at 26.7 nmol/kg, sc measured after 240 mins by tail-flick test; assay type: functional; settings: 4 h
[5] = tested on: Mus musculus; test: Antinociceptive activity in Kunming mouse assessed as changes in tail flick latency at 26.7 nmol/kg, sc pretreated with naloxone methiodide at 5 nmol, icv for 10 mins followed by compound addition and measured for 360 mins by tail-flick test; assay type: functional, organism-based
[6] = tested on: Mus musculus; test: Antinociceptive activity in Kunming mouse assessed as changes in tail flick latency by measuring maximal possible effect at 26.7 nmol/kg, sc measured after 120 mins by tail-flick test; assay type: functional; settings: 2 h
[7] = Metabolic stability in mouse brain homogenate assessed as degradation half life at 10 mM measured upto 480 mins by RP-HPLC analysis; assay type: ADME, tissue-based
[8] = tested on: Mus musculus; test: Antinociceptive activity in Kunming mouse assessed as changes in tail flick latency by measuring maximal possible effect at 26.7 nmol/kg, sc measured after 60 mins by tail-flick test; assay type: functional; settings: 1 h
[9] = tested on: Mus musculus; test: Antinociceptive activity in Kunming mouse assessed as changes in tail flick latency by measuring time duration of antinociceptive effect at 26.7 nmol/kg, sc by tail-flick test; assay type: functional
[10] = tested on: Mus musculus; test: Antinociceptive activity in Kunming mouse assessed as changes in tail flick latency by measuring maximal possible effect at 26.7 nmol/kg, sc measured after 20 mins by tail-flick test; assay type: functional
[11] = target: T3, Mu-type opioid receptor (Homo sapiens, UniProt P35372); test: Agonist activity at MOR (unknown origin) transfected in CHO cells co-expressing Galphaq15 assessed as increase in calcium mobilization by measuring maximal efficacy by Fluo-4AM dye based assay relative to control; assay type: functional, cell-based; settings: filed as agonist
T3 sequence (P35372 whole entry): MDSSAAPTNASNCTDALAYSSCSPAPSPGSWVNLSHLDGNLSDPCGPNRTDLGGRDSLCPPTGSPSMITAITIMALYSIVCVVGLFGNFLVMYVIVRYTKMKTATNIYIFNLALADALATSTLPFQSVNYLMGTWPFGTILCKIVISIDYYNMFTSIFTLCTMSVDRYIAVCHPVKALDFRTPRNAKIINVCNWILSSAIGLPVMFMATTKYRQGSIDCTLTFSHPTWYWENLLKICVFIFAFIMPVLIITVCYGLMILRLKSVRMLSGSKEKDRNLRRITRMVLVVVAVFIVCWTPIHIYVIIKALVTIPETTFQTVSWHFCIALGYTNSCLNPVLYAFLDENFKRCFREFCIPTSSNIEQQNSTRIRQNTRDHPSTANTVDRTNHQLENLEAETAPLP

[12] = target: T4, Neuropeptide FF receptor 2 (Homo sapiens, UniProt Q9Y5X5); test: Agonist activity at NPFF2R (unknown origin) transfected in HEK293 cells co-expressing Galphaq15 assessed as increase in calcium mobilization by measuring maximal efficacy by Fluo-4AM dye based assay relative to control; assay type: functional, cell-based; settings: filed as agonist
T4 sequence (Q9Y5X5 whole entry): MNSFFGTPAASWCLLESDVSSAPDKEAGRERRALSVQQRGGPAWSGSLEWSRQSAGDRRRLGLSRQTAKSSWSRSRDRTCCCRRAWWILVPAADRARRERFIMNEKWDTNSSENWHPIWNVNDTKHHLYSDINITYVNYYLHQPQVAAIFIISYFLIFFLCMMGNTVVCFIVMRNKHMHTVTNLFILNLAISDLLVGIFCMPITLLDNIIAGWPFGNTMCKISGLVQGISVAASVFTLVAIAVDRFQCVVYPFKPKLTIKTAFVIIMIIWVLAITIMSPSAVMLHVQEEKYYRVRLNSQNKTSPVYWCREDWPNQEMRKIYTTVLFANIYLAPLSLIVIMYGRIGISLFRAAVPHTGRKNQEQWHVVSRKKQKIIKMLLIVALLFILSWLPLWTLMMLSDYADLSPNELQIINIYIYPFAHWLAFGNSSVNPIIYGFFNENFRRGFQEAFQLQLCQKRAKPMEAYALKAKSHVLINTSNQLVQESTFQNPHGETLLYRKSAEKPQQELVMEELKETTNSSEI

[13] = Metabolic stability in mouse plasma assessed as degradation half life at 10 mM measured upto 480 mins by RP-HPLC analysis; assay type: ADME, cell-free
[14] = Agonist activity at NPFF1R (unknown origin) transfected in CHO cells co-expressing Galphaq15 assessed as increase in calcium mobilization by measuring maximal efficacy by Fluo-4AM dye based assay relative to control; assay type: functional, cell-based; settings: Homo sapiens, filed as agonist
[15] = target: T2, Delta-type opioid receptor; test: Agonist activity at DOR (unknown origin) transfected in CHO cells co-expressing Galphaq15 assessed as increase in calcium mobilization by measuring maximal efficacy by Fluo-4AM dye based assay relative to control; assay type: functional, cell-based; settings: filed as agonist
[16] = target: T1, Kappa-type opioid receptor; test: Agonist activity at KOR (unknown origin) transfected in CHO cells co-expressing Galphaq15 assessed as increase in calcium mobilization by Fluo-4AM dye based assay; assay type: functional, cell-based
[17] = target: T4, Neuropeptide FF receptor 2; test: Agonist activity at NPFF2R (unknown origin) transfected in HEK293 cells co-expressing Galphaq15 assessed as increase in calcium mobilization by Fluo-4AM dye based assay; assay type: functional, cell-based
[18] = target: T3, Mu-type opioid receptor; test: Agonist activity at MOR (unknown origin) transfected in CHO cells co-expressing Galphaq15 assessed as increase in calcium mobilization by Fluo-4AM dye based assay; assay type: functional, cell-based

CN1C(=O)CNC(=O)[C@H](N[C@@H](Cc2ccc(O)cc2)C(=O)O)CCC/C=C/C[C@@H](C(=O)N2CCC[C@H]2C(=O)N[C@@H](CCC(N)=O)C(=O)N[C@@H](CCCNC(=N)N)C(=O)N[C@@H](Cc2ccccc2)C(N)=O)NC(=O)[C@@H]1Cc1ccccc1
MPE [1]: 96%
Emax [2]: 98.3%
EC50 [3]: 27.7 nM
MPE [4]: 44.7%
Activity [5]: inactive
MPE [6]: 65.5%
half-life at 10000 µM [7]: 1.52 h
MPE [8]: 81.9%
Time [9]: 360 min
MPE [10]: 94.2%
Emax [11]: 120%
Emax [12]: 77.9%
half-life at 10000 µM [13]: 1.01 h
Emax [14]: 129%
Emax [15]: 93%
EC50 [16]: 124 nM
EC50 [17]: 52.3 nM
EC50 [18]: 38.9 nM

From ChEMBL document CHEMBL5356973 (J Med Chem, 2023)
